According to ChEMBL document CHEMBL1146784, “Human ACAT-1 and -2 inhibitory activities of saucerneol B, manassantin A and B isolated from Saururus chinensis” (Bioorg Med Chem Lett, 2004):

Columns and labels:
[1] = target: T1, Sterol O-acyltransferase 2 (Homo sapiens, UniProt O75908); test: (§1) Concentration required to inhibit Acyl coenzyme A:cholesterol acyltransferase 2
T1 sequence (O75908 whole entry): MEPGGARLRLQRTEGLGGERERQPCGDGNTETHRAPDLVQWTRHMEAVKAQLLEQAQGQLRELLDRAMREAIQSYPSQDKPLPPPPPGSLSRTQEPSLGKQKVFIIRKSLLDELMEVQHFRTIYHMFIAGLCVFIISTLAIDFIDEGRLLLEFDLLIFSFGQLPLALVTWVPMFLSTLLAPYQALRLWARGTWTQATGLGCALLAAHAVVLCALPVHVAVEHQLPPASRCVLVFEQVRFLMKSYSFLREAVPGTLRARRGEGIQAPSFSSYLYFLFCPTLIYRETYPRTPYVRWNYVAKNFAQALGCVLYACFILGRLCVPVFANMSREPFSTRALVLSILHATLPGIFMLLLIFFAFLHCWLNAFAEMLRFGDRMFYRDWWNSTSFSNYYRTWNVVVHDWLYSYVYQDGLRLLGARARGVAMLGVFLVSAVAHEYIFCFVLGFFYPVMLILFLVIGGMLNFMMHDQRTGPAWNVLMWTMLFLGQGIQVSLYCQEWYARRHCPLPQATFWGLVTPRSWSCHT

[2] = target: T2, Sterol O-acyltransferase 2 (Homo sapiens) (UniProt O75908); test: as §1; settings: concentration not given here
T2 sequence (whole entry): T1 sequence (O75908 whole entry)

[3] = species on record: Mus musculus; test: Effect against body weight of mice when treated with 0.1% wt/wt diet of compound for 10 days; On day 0 =21.8 g; format: functional

Compound: COc1ccc(C(O)C(C)Oc2ccc([C@H]3O[C@H](c4ccc(OC(C)C(O)c5ccc(OC)c(OC)c5)c(OC)c4)[C@H](C)[C@H]3C)cc2OC)cc1OC (stereo partly drawn)
- IC50 [1]: 39 µM

Compound: COc1ccc(C(O)C(C)Oc2ccc([C@H]3O[C@H](c4ccc(OC(C)C(O)c5ccc6c(c5)OCO6)c(OC)c4)[C@H](C)[C@H]3C)cc2OC)cc1OC (stereo partly drawn)
- inhibition [2]: 32%

Compound: CC(C)(Sc1cc(C(C)(C)C)c(O)c(C(C)(C)C)c1)Sc1cc(C(C)(C)C)c(O)c(C(C)(C)C)c1 [PROBUCOL]
- Body weight [3]: 23.7 g
